Legend:
L-1210 cells = experiment: Antineoplastic action against implanted L-1210 cells (ip-ip), survival T/C; type: in vivo, CDFl mice
Protocol: In this animal test, the antineoplastic action against the implanted tumor was examined in lower animals, in vivo, in respect of the compounds according to the present invention, by using CDFl mice.
To the peritoneal cavity of each group of mice consisting of six CDFl mice per group, 10^6 /0.1 ml of P-388 cells or 10^5 /0.1 ml of L-1210 cells were implanted. […] While to the control groups of CDFl mice, P-388 and L-1210 cells were implanted in the same manner and they were bred without administration of the compounds.
(§1) In the Table, the symbol T/C % means Treatment/Control %, that is the increase in life when the control is 100. The values are obtained by implanting tumor cells to groups of mice (or rats), administering the compound being tested in various amounts every 24 hours after the implantation of the tumor cells and then calculating the ratio, the median survival time of the group to which the compound has been administered to the survival of the control, multiplied by a factor of 100. This method is used in the screening of U.S. National Cancer Institute.
(§2) In Table 7, the symbol "i.P.-i.P." means that the tumor cells are implanted intraperitoneally and the compounds being tested are also administered intraperitoneally. The symbol "TR" is the therapeutic ratio obtained by dividing the dose which provides a maximum T/C value, by the dose which provides a minimum T/C value.

P 388 = P 388 (ip-iv), survival T/C; type: in vivo, mice; conditions: 5 mg/kg × 5
Protocol: as §1
In Table 9, "iv" and "sc" means that the administration of the compounds is carried out intravenously and the implantation of the tumor cells is carried out subcutaneously.

P-388 cells = experiment: Antineoplastic action against implanted P-388 cells (ip-ip), survival T/C; type: in vivo, CDFl mice; conditions: for T/C % (Treatment/Control %): Table 6, P388, intraperitoneal
Protocol: To the peritoneal cavity of each group of mice consisting of six CDFl mice per group, 10^6 /0.1 ml of P-388 cells or 10^5 /0.1 ml of L-1210 cells were implanted. […]
In the Table, the symbol T/C % means Treatment/Control %, that is the increase in life when the control is 100. […] This method is used in the screening of U.S. National Cancer Institute.
as §2

B-16 melanoma = experiment: B16 melanoma (ip-ip), survival T/C; type: in vivo, mice
Protocol: (§3) In the Table, the symbol T/C % means Treatment/Control %, that is the increase in life when the control is 100. The values are obtained by implanting tumor cells to groups of mice (or rats), administering the compound being tested in various amounts every 24 hours after the implantation of the tumor cells and then calculating the ratio, the median survival time of the group to which the compound has been administered to the survival of the control, multiplied by a factor of 100. This method is used in the screening of U.S. National Cancer Institute. […]
as §2

MOPC-104E = MOPC-104E (ip-ip), survival T/C; type: in vivo; conditions: 2 mg/kg × 9 times
Protocol: as §1

Colon 26 = Colon 26 (ip-ip), survival T/C; type: in vivo; conditions: 4 mg/kg × 9
Protocol: as §1

MM2 = MM2 (ip-ip), survival T/C; type: in vivo, mice; conditions: for mice continuing to live more than 60 days after implantation (60<): Table 7, MM2 (i.P. - i.P.)
Protocol: as §3, §2
The term in Table 7, last column "3/6 60<", means that 3 mice out of 6 mice continue to live more than 60 days after the implantation of the tumor cells.

Yoshida sarcoma = Yoshida sarcoma (ip-ip), survival T/C; type: in vivo
Protocol: as §1

CCCCCCOc1ccc2cc1Oc1ccc(cc1)CC1C(=O)N(C)C(C2)C(=O)NC(C)C(=O)NC(C)C(=O)N(C)C(Cc2ccc(OC)cc2)C(=O)NC(C)C(=O)N1C (centres unmarked) [Ex. 2, n-hexylether of the compound TPC-A]
L1210 (i.P. - i.P.) T/C (%) (L-1210 cells; Table 7, dose 0.5 mg/kg): 115.6%
L1210 (i.P. - i.P.) T/C (%) (L-1210 cells; Table 7, dose 2 mg/kg): 126.6%
L1210 (i.P. - i.P.) T/C (%) (L-1210 cells; Table 7, dose 4 mg/kg): 130.9%
T/C (P 388): 118.9%
T/C % (Treatment/Control %) (P-388 cells; dose 0.05 mg/kg): 110.3%
T/C % (Treatment/Control %) (P-388 cells; dose 0.5 mg/kg): 137.3%
T/C % (Treatment/Control %) (P-388 cells; dose 2 mg/kg): 153.5%
T/C % (Treatment/Control %) (P-388 cells; dose 4 mg/kg): 173.0%
P388 (i.P. - i.P.) T/C (%) (P-388 cells; Table 7, dose 0.05 mg/kg): 130.4%
P388 (i.P. - i.P.) T/C (%) (P-388 cells; Table 7, dose 0.5 mg/kg): 143.5%
P388 (i.P. - i.P.) T/C (%) (P-388 cells; Table 7, dose 2 mg/kg): 150.0%
P388 (i.P. - i.P.) T/C (%) (P-388 cells; Table 7, dose 5 mg/kg): 176.1%
effectiveness against B-16 melanoma (B-16 melanoma; (see Table 7)): effective
B16 (i.P. - i.P.) T/C (%) (B-16 melanoma; Table 7, dose 0.5 mg/kg): 130.5%
B16 (i.P. - i.P.) T/C (%) (B-16 melanoma; Table 7, dose 2 mg/kg): 158.2%
B16 (i.P. - i.P.) T/C (%) (B-16 melanoma; Table 7, dose 4 mg/kg): 136.2%
T/C (MOPC-104E): 145.3%
T/C (Colon 26): 133.7%
mice living more than 60 days (60<) (Colon 26): 2/6
effectiveness against MM2 (MM2; (see Table 7)): effective
mice continuing to live more than 60 days after implantation (60<) (MM2; dose 2 mg/kg): 3/6
mice continuing to live more than 60 days after implantation (60<) (MM2; dose 4 mg/kg): 1/7
MM2 (i.P. - i.P.) T/C (%) (MM2; Table 7, dose 0.5 mg/kg): 110.3%
MM2 (i.P. - i.P.) T/C (%) (MM2; Table 7, dose 2 mg/kg): 129.3%
MM2 (i.P. - i.P.) T/C (%) (MM2; Table 7, dose 4 mg/kg): 161.8%
T/C (Yoshida sarcoma; 0.1 mg/kg × 5): 129.7%
T/C (Yoshida sarcoma; 0.5 mg/kg × 5): 173.6%
T/C (Yoshida sarcoma; 1 mg/kg × 5): 160.4%
T/C (Yoshida sarcoma; 2.5 mg/kg × 5): 149.5%

From patent US4725578A, “Compounds having therapeutic effect and the preparation thereof” (Tobishi Pharmaceutical Co., Ltd., priority 1986, dated 1988)
